Measurements reported in patent publication US20250129045A1, “SMALL MOLECULE PIM AND MTOR KINASE INHIBITOR AND METHODS OF USE THEREOF” (Arizona Board of Regents on Behalf of the University of …, priority 2022, published 2025).
“Also recorded” adds a separate entry of the source.

Tests used:
mTORC = assay: Phosphorylation of mTORC substrates in PANC1 cells (Western blot); type: cell-based; settings: overnight incubation, FIG. 19
Procedure: (§1) Immunoblotting: Western blots were performed as described previously. Briefly, protein lysates (30 μg) were subjected to SDS-PAGE and transferred to nitrocellulose membranes. After blocking with 5% milk in TBST buffer for 30 min at room temperature, the membranes were incubated overnight at 4° C. with the Indicated primary antibody in 3% BSA in TBST. Specific proteins were detected with the corresponding HRP conjugated secondary antibody using enhanced chemiluminescence (GE Lifesciences, Piscataway, NJ).
(§2) Because of ease of growth, PANC1 pancreatic cancer cells were used to test the activity of derivatives of VBT-5445 (FIG. 14). […] Using a doxycycline inducible Pim kinase vector in these tumor cells, this inhibition of phosphorylation was proportional to the level of Pim in these cells (FIG. 9). […] Inhibition of mTORC1 is known to stimulate the feedback activation of mTORC2 leading to AKT phosphorylation. […] The effect of these compounds on mTORC1 and 2 was still evident in PC3-LN4 cells that contained a knockout (KO) using CRISPR/CAS9 of either TSC2 or DEPDC5 (FIG. 12, lanes 4-9). TSC2 KO activated the Rheb GTPase while DEPDC5 KO activated the RAG GTPase both of which stimulate mTORC1 activity. Thus, GRG compounds were capable of inhibiting mTORC1 activity even when this kinase was highly activated.

Acetyl CoA carboxylase = Acetyl CoA carboxylase phosphorylation in LNCaP cells (Western blot); type: cell-based; settings: LNCaP prostate cancer cell line
Procedure: LNCaP cells were treated in a 6 well plate with GRG-1-35 for the indicated times. Cells were scrapped and protein extracts subjected to SDS-PAGE and Western blotted with the antibodies shown.

[1] = system: PANC1 pancreatic cancer cells; assay: Growth inhibition of PANC1 pancreatic cancer cells; type: cell-based
Procedure: (§3) Cell growth assay: Tumor cells were seeded into 48 well plates (1000 cells/well) and treated with varied agents. The Incucyte real-time imaging system (Incucyte) was used to measure cell proliferation using a non-label cell monolayer confluence approach. The images were captured every 12 h. Graphs were generated using an integrated confluence metric as an alternative for cell numbers. At the end of the study cell growth was visualized by crystal violet staining.
as §2

[2] = system: T-cell acute lymphoblastic leukemia cell line DU528; assay: Cell viability (XTT) assay in T-ALL cells; type: cell-based; settings: 72 h
Procedure: Cell viability (XTT) assay: T-ALL cells were seeded into 96 well plates at a density of 20,000 cells per well and treated with VBT-5445 for 72 h, using DMSO as control. Cell viability was measured using XTT cell proliferation assay (Trevigen Cat #4891-025-K) following the manufacturer's protocol. Briefly, XTT reagent was added to cell culture after the treatment and incubated for 4 h at 37° C. and 5% CO2. The absorbance of the colored formazan product was measured at 450 nm.

Pim1 [3] = biological target: T1, Pim1 (Homo sapiens, UniProt P11309); assay: Kinase assay with purified Pim1 and EDC3 (EDC3 S161 phosphorylation); type: biochemical; settings: concentration of 1 μM
T1 sequence (P11309 whole entry): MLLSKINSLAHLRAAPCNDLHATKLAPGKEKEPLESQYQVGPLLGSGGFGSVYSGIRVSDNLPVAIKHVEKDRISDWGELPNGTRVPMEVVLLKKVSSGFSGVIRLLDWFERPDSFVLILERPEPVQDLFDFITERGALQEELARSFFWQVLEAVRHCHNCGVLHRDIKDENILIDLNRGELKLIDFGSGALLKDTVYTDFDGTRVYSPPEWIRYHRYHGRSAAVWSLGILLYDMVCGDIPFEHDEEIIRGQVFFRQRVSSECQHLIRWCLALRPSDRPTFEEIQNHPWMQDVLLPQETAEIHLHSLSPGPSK
Procedure: (§4) FIGS. 7A-7I show inhibition of VBT5445 (VBT) on Pim1 and EDC3 binding and phosphorylation. FIG. 7A: In vitro co-precipitation (Co-PPT) assay was performed with recombinant EDC3 and biotinylated Pim1 using Streptavidin beads with increasing concentrations of the Pim inhibitor VBT5445 (VBT). FIG. 7B: Kinase assays were performed with recombinant EDC3 and Pim1 with increasing concentrations of VBT. FIG. 7C: Cell lysates from PC3-LN4 cells cultured with DMSO, 10 μM VBT, 3 μM AZD5363 (AKTi) and the combination for 6 hrs were subjected to western blotting (WB). […] WBs were performed using the indicated antibodies. FIG. 7E: PC3-LN4 cells were seeded into 48 well plate and incubated with either DMSO, VBT, AZD5363 or the combination, for 4.5 days. A real-time imaging system (IncuCyte™) was used to measure cell proliferation using a non-label cell monolayer confluence approach. FIG. 7F-7H: GFP image in PC3 LN4 GFP EDC3 expressing cells treated with PIMi: VBT (5 μM) and VBT (5 μM)+AZD5363 (3 μM) for 6 hrs.
Computer screening followed by surface plasmon resonance (SPR) yielded a lead compound VBT-5445 that can interact with the Pim-1 protein kinase. Enhancer of mRNA Decapping 3 (EDC3) is a substrate of the Pim kinase that regulates the decapping of messenger RNA, and its activity is modulated by Pim mediated phosphorylation. […]

PC3-LN4 cells [4] = assay: P-body (PB) number in PC3-LN4 GFP-EDC3 cells; type: cell-based, human; settings: 6 h
Procedure: as §4
To measure PB numbers, PC3-LN4 PCa cells containing a CRISPR/Cas total knock-out of EDC3 were stably transduced with GFP-EDC3. When localized in PBs, GFP spots could be quantified. PBs were quantified at the University of Colorado Center for Drug Discovery using an Opera Phenix Plus high content screening system (PerkinElmer) Perkin Elmer G3 robotic system after drug treatment. Assays were carried out in quadruplicate and the mean number of PBs per cell and cell area calculated. An example of this assay is shown using […] buffered saline (HBSS) to induce PB formation.
Immunofluorescence: Immunofluorescence (IF) staining was performed on PC3-LN4 cells stably expressing EDC3-GFP. 1×10^4 cells were seeded in each chamber of an 8 well chamber slide (Nunc Lab-Tek II Chamber Slide System, Life Technologies) and cultured for 48 h. After attaching to the chamber slides cells were treated with DMSO, VB-5445 ([…]), AZD5363 (3 μM), or the combination for 6 h. Cells were then fixed with 4% paraformaldehyde in PBS for 15 min and subsequently permeabilized with 0.2% Triton X-100 in PBS. Cells were stained with diluted DAPI (1:4000) in 1% nor-mal goat serum in PBS. Cells were mounted with Prolong Gold Antifade mounting medium (Molecular Probes).

Pim1 and EDC3 binding = Pim1 and EDC3 binding (Homo sapiens, UniProt P11309); assay: In vitro co-precipitation / co-immunoprecipitation of EDC3 with Pim1; settings: VBT-5445 at concentrations higher than 1 μM
Sequence of Pim1 and EDC3 binding (P11309 whole entry): as above
Procedure: as §4

[5] = Tolerability by gavage in mice; type: in vivo; settings: 30 mg/kg by gavage in combination with AZD5363 40 mg/kg
Excerpt: Maximum Tolerated Dose and Side Effect Profile. […] To obtain the maximum tolerated dose (MTD), the dose will be increased by 50% over the previous one at each ensuing treatment consisting of 3 mice given daily for 5 days. Mice will be observed for fur ruffling and behavior changes. Blood will be drawn, and the WBC count and blood chemistry will be determined to evaluate bone marrow, liver, and kidney toxicity. Together with pharmacokinetic profiling, this analysis will help determine the best dose and frequency of administration for this molecule.

PC3-LN4 cells [6] = assay: Cell growth assay (IncuCyte) in PC3-LN4 prostate cancer cells; type: cell-based, human; settings: for prostate cancer (PC3-LN4) growth, in combination with AKT/PI3K inhibitor: combination with AZD5363 or BKM120
Procedure: as §4, §3

Pim1 [7] = biological target: T1, Pim1; assay: Surface plasmon resonance (SPR) binding of VBT5445 to Pim1; settings: 500 nM PIM447 vs DMSO
Procedure: as §4
A virtual screening effort was mounted to find chemicals that interact outside of ATP binding site of Pim screening over 100,000 compounds followed by testing the top 303 by Surface Plasmon Resonance (SPR). Synthesis of the most likely candidate was achieved by the Arizona Center for Drug Discovery at the University of Arizona. […]

PC3-LN4 cells [8] = assay: Western blotting of PC3-LN4 cell lysates; type: cell-based, human
Procedure: as §4, with “FIG.” for “FIGS. 7A-7I show inhibition of VBT5445 (VBT) on Pim1 and EDC3 binding and phosphorylation. FIG.”
Extracts were subjected to Western blotting with the indicated antibodies.
as §1

## O=c1c(CNCc2cc(Cl)ccn2)cc2ccc(Cl)cc2n1CCOc1ccccc1 [GRG-1-35]
mTORC
  block of phosphorylation of mTORC substrates (AKT, 4E-BP1, S6): block the phosphorylation of mTORC substrates
Acetyl CoA carboxylase
  phosphorylation of acetyl CoA carboxylase: Induction; also recorded: increased the phosphorylation of acetyl CoA carboxylase
[1]
  growth inhibitory activity against PANC1 pancreatic cancer cells: most active

## O=c1c(CNCc2cccnc2)cc2ccc(Cl)cc2n1CCOc1ccccc1 [VBT5445]
[2]
  growth of T-acute lymphoblastic leukemia cells: inhibited the growth
Pim1 [3]
  inhibition of EDC3 serine 161 phosphorylation by Pim1: inhibited EDC3 phosphorylation
PC3-LN4 cells [4]; combination with AZD5363 (3 μM)
  number of P-bodies, with AKT inhibitor AZD5363 added: further increased these numbers; also recorded: further increase P-body formation
PC3-LN4 cells [4]; compound alone
  number of P-bodies: increased PB numbers; also recorded: induces increased numbers of P-bodies
Pim1 and EDC3 binding
  co-immunoprecipitation of EDC3 with Pim: blocked the ability of Pim1 to coimmunoprecipitate with EDC3
[5]
  weight loss or behavior changes: without any weight loss or behavior changes
PC3-LN4 cells [6]
  prostate cancer (PC3-LN4) growth, in combination with AKT/PI3K inhibitor: more active in inhibiting cancer growth
PC3-LN4 cells [6]; listed as VBT
  prostate cancer (PC3-LN4) growth, in combination with AKT/PI3K inhibitor: markedly inhibits the growth
PC3-LN4 cells [6]; compound alone
  growth in culture of PC3-LN4 cells: markedly inhibits the growth
Pim1 [7]
  increase of binding to Pim1 when PIM447 was added and bound to the ATP site: 3 fold
PC3-LN4 cells [8]
  ITGB1 protein level, combination with AZD5363 (AKTi): reduced
  cellular level of Pim kinases: decreases the level of all Pim kinases
  cellular level of c-Myc protein: decrease
  mTORC1 activity: phosphorylation of the S6 protein: blocked mTORC1 activity
